Data: article PMC3384000, “TCN 201 selectively blocks GluN2A-containing NMDARs in a GluN1 co-agonist dependent but non-competitive manner” (Neuropharmacology, 2012)
Like-named read-outs stand apart in the source and are kept apart here. One block for each compound: values may come before it.

Assays:
GluN1/GluN2A NMDARs [1] = target: T1, GluN1/GluN2A NMDARs (Rattus norvegicus, UniProt P35439+Q00959); assay: TEVC recordings of NMDAR currents from Xenopus laevis oocytes expressing GluN1/GluN2A; assay type: cell-based; conditions: for inhibition of GluN1/GluN2A NMDAR-mediated currents: antagonist 10 μM; for inhibition at 10 µM: TCN 201 10 μM; for IC50: minimum unconstrained, read-out: IC50 (concentration giving 50% of the maximal achievable inhibition)
T1 construct: expressed in transfected cells; host or cells: Xenopus laevis oocytes injected with cRNA (GluN1:GluN2 1:1)
T1 sequence (Q00959 20-1464 limits assumed, other chains not shown): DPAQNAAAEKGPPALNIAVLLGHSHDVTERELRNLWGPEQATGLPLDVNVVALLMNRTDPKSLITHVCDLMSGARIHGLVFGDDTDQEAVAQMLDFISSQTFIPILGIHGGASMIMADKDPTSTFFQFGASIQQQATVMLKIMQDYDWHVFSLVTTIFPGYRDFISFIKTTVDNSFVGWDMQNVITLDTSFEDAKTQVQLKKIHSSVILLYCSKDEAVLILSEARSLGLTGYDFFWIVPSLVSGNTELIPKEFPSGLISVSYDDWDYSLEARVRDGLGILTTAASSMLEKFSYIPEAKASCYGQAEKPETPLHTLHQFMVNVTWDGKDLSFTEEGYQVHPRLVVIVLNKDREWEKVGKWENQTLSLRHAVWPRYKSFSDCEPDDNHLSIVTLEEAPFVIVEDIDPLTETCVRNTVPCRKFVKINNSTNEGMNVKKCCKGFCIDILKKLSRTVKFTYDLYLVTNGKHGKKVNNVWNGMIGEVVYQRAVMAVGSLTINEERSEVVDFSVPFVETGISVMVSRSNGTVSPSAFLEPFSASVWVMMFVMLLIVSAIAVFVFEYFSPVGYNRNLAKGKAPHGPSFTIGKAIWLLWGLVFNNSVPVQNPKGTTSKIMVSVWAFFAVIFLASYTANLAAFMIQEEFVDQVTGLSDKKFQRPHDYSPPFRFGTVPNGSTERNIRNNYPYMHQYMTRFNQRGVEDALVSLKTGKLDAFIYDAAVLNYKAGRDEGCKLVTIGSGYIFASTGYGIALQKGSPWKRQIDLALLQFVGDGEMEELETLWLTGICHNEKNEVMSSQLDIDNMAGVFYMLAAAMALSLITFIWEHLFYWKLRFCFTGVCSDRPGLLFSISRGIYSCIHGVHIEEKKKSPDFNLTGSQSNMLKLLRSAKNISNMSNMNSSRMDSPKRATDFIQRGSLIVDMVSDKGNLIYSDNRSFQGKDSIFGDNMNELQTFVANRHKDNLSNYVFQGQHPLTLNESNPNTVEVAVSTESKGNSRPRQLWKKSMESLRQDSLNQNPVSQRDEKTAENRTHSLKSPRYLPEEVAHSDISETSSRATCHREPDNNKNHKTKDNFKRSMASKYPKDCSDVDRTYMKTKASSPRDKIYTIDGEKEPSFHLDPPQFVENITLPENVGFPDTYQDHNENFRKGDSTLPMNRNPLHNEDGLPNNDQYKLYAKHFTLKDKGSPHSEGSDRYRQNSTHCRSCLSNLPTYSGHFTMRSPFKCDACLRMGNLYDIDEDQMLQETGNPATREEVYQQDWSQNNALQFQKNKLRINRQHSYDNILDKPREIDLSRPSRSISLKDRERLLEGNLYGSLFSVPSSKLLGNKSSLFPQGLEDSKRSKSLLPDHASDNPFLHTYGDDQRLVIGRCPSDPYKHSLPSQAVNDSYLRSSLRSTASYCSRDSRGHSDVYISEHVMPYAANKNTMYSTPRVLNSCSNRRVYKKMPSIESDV
Procedure: (§1) Nomenclature of NMDA receptor subunits follows [Collingridge et al. (2009)] and [Alexander et al. (2011)]. pSP64T-based plasmid constructs containing cDNA coding for rat GluN1-1a (i.e. the splice variant that lacks exon 5, but contains exons 21 and 22), hereafter termed GluN1 and wild-type rat GluN2A receptor subunits were prepared as described by ([Chen et al., 2005]). The rat GluN2B-containing cDNA expression vector was a gift by Stephen Traynelis (Emory University, Atlanta, GA). cRNA was synthesized as runoff transcripts as previously detailed ([Chen et al., 2005], [2008]; [Erreger et al., 2007]). Fluorescence intensity in ethidium bromide-stained agarose gels was employed to confirm the fidelity and yield of synthesized cRNAs. For recombinant receptor expression, GluN1 and GluN2 cRNAs were mixed at a nominal ratio of 1:1 and diluted with nuclease-free water to 5 ng μl^−1.
(§2) Oocytes (Stage V–VI) were removed from Xenopus laevis that had been killed in accordance with current UK Home Office protocols and defolliculated by initial collagenase treatment, then manually using forceps. 23–37 nl of cRNA mix was injected into oocytes which were subsequently maintained in Barth's solution (composition in mM: NaCl 88, KCl 1, NaHCO3 2.4, MgCl2 0.82, CaCl2 0.77, Tris-Cl 15, adjusted to pH 7.35 with NaOH and supplemented with 50 IU ml^−1 penicillin, 50 μg ml^−1 streptomycin, 50 μg ml^−1 tetracycline) for 24–48 h at 19 °C to allow for receptor expression and then stored at 4 °C until required for electrophysiological measurements.
(§3) Two-electrode voltage-clamp (TEVC) recordings were made using a GeneClamp 500 amplifier (Molecular Devices, Sunnyvale, CA) at room temperature (18–21 °C) from oocytes placed in a bath that was perfused with a solution comprising (in mM): NaCl 115, KCl 2.5, HEPES 10, BaCl2 1.8, EDTA 0.01; pH 7.4 with NaOH. Note EDTA was included to chelate contaminating low nanomolar levels of Zn^2+ that potently block of GluN2A-containing NMDARs in a voltage-independent manner. […] TEVC recordings were performed at −30 or −40 mV. Currents were filtered at 10 Hz and digitized online at 100 Hz, via a Digidata 1200 A/D interface (Molecular Devices, Union City, CA, USA), using WinEDR 3.1.9 software (Strathclyde Electrophysiology Software, Strathclyde University, UK).
The concentration of TCN 201 required to inhibit 50% (IC50) of agonist-evoked responses were determined by fitting data to the equation: I=I[B]∞+((I[B]0−I[B]∞)/(1+([B]/IC50)^nH)), where I is current response, I[B]0 is predicted maximum current in the absence of antagonist, I[B]∞ is the predicted minimum current in the presence of an infinite concentration of antagonist,[B] is the concentration of the antagonist and nH represents the Hill coefficient. To obtain an overall mean IC50 value, data points were normalised to the predicted maximum, pooled and refitted with the equation, with the maximum of each curve being constrained to asymptote to 1 but with the minimum fitted as a free parameter ([Otton et al., 2011]; [Wrighton et al., 2008]). In addition we fitted data points where both the maximum and minimum were constrained (to 1 and 0, respectively). The F ratio was calculated from the following equation: F=(SSR1−SSR2)/(DF1−DF2)/SSR2/DF2, where SSR1 and SSR2 are the sum of squared residuals of the constrained and unconstrained fits respectively and DF1 and DF2 are the degrees of freedom associated with each of the two fits.

GluN1/GluN2A NMDARs [2] = target: T1, GluN1/GluN2A NMDARs; parameters: method as in McKay et al., 2012; conditions: ref McKay et al., 2012, cited from earlier work
GluN1/GluN2B NMDARs = target: T2, GluN1/GluN2B NMDARs (Rattus norvegicus, UniProt P35439+Q00960); assay: TEVC recordings of NMDAR currents from Xenopus laevis oocytes expressing GluN1/GluN2B; assay type: cell-based; conditions: TCN 201 10 μM, read-out: percentage inhibition of GluN1/GluN2B NMDAR-mediated currents
T2 construct: expressed in transfected cells; host or cells: Xenopus laevis oocytes injected with cRNA (GluN1:GluN2 1:1)
T2 sequence (Q00960 27-1482, other chains not shown): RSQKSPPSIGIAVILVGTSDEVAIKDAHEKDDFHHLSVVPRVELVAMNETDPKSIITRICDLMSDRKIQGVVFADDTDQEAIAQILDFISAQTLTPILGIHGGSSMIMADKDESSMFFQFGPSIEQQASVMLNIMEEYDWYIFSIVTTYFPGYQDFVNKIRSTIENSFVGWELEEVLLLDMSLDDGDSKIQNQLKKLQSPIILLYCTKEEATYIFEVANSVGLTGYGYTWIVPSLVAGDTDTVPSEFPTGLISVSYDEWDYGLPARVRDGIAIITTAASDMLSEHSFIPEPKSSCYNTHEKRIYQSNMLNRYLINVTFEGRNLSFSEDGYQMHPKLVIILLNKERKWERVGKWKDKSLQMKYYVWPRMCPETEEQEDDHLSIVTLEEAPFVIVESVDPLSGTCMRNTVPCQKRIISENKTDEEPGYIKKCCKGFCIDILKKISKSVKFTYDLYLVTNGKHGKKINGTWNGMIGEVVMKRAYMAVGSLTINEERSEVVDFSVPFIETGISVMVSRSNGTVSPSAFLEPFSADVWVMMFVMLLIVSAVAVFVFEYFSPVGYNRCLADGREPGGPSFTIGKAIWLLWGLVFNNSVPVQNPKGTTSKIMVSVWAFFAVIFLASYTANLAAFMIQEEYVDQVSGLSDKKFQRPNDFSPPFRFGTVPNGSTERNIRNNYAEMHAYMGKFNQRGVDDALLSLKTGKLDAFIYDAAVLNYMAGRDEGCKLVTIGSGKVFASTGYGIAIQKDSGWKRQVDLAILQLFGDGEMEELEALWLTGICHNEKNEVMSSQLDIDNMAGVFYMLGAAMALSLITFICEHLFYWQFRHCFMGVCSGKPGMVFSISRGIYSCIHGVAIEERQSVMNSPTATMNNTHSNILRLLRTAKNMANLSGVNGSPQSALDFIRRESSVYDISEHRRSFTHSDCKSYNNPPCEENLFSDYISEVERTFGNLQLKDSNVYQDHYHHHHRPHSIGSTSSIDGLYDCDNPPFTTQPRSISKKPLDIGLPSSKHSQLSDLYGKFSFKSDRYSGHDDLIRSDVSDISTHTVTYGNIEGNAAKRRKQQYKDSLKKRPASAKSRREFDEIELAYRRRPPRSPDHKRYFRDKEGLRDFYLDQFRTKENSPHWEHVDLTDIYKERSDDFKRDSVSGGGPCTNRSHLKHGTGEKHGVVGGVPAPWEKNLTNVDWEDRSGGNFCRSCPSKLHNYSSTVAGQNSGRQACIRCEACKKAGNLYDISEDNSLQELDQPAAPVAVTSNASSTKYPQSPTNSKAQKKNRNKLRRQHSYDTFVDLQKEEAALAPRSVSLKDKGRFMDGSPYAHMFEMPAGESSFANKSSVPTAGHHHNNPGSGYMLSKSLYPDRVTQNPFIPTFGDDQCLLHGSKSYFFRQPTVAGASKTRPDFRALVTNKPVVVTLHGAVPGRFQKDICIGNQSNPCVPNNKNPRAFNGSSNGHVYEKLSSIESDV
Procedure: as §1, §2
as §3, with “Currents were filtered at 10 Hz and digitized online at 100 Hz, via a Digidata 1200 A/D interface (Molecular Devices, Union City, CA, USA), using WinEDR 3.1.9 software (Strathclyde Electrophysiology Software, Strathclyde University, UK).” left out

GluN1/GluN2A NMDARs [3] = target: T1, GluN1/GluN2A NMDARs; assay: Schild analysis of antagonism at GluN1/GluN2A NMDARs (TEVC, oocytes); assay type: cell-based; conditions: for dose ratio (r) for shift in glycine potency: glutamate 30 μM; for Schild plot slope (free linear regression fit): 0.3, 1 and 3 μM TCN 201 data points
Procedure: as §1, §2, §3
TCN 201 antagonism at the GluN1/GluN2A NMDAR was examined by the Schild method ([Arunlakshana and Schild, 1959]; [Wyllie and Chen, 2007]). Dose-ratios (r) were defined as the ratio of the concentration of agonist, in the presence of a fixed concentration of antagonist, required to evoke the same response that was obtained in the absence of the antagonist. Dose-ratios from individual oocytes were determined at low agonist concentrations by constructing a partial concentration-response curve generated in the absence of antagonist and in the presence of a series of increasing antagonist concentrations. Due to the lack of sufficient perfusion lines, the dose-ratio estimate for the higher concentrations of TCN 201 (3 and 10 μM) was determined in a separate series of experiments from those carried out for the lower two concentrations (0.3 and 1 μM). Each series of two-point concentration-response curves were plotted on a log–log scale and the slope of the line used to fit the initial (antagonist-free) two-point concentration-response curve was used to fit the remaining curves. These parallel fits were used to calculate an overall mean r value for each antagonist concentration [B], which were then used to construct a Schild plot. On a log–log scale the gradient of the line used to fit such data is predicted by the Schild equation to be unity for a competitive antagonist. […] For ‘allosteric’ antagonism at equilibrium, the Schild plot deviates from unity at higher concentrations of antagonist ([Christopoulos and Kenakin, 2002]). […]

[4] = test system: NMDAR-mediated currents in rat cortical neurones; assay: Whole-cell NMDA-evoked currents in cultured cortical neurones; assay type: cell-based; conditions: TCN 201 10 μM after ifenprodil, NMDA 50 μM, glycine 3 μM
[5] = Solubility in external recording solutions; assay type: physicochemical; conditions: external recording solutions for TEVC or whole-cell patch-clamp; from 3 mM DMSO stock
Procedure: Glutamate, glycine and D-serine were purchased from Sigma–Aldrich (Poole, UK). TCN 201, TCN 213, NMDA, ifenprodil, picrotoxin and tetrodotoxin were purchased from Tocris Bioscience (Bristol, UK). Stock solutions (3 mM) of TCN 201 were made by dissolving the antagonist in DMSO.

[6] = glutamate 30 μM, D-serine 10 μM
[7] = glutamate 30 μM, D-serine 30 μM

inhibition of GluN1/GluN2A NMDAR-mediated currents (GluN1/GluN2A NMDARs [1]; glutamate 30 μM, glycine 10 μM): 44.0 ± 2.2%
inhibition of GluN1/GluN2A NMDAR-mediated currents (GluN1/GluN2A NMDARs [1]; glutamate 30 μM, glycine 30 μM): 17.3 ± 1.4%
SMILES: O=C(CSc1nnc(NCc2ccccc2)s1)NCC1CCCCC1 [TCN 213, N-(cyclohexylmethyl)-2-[{5-[(phenylmethyl)amino]-1,3,4-thiadiazol-2-yl}thio]acetamide]
pA2 (GluN1/GluN2A NMDARs [2]; GluN1/GluN2A NMDARs): 5.69
Kb (GluN1/GluN2A NMDARs [2]; Schild analysis, agonist glycine, read-out: equilibrium constant (KB)): 2000 nM

inhibition at 10 µM (GluN1/GluN2A NMDARs [1]; Fig. 2b, read-out: inhibition of glutamate/glycine-evoked GluN1/GluN2A NMDAR-mediated currents): 91.2 ± 1.1%
inhibition at 10 µM (GluN1/GluN2A NMDARs [1]; data not shown, read-out: inhibition of NMDA/glycine-evoked GluN1/GluN2A NMDAR-mediated currents): 69.9 ± 4.1%
inhibition at 10 µM (GluN1/GluN2A NMDARs [1]; glutamate 3 μM, glycine 30 μM, read-out: percentage inhibition of GluN1/GluN2A NMDAR-mediated currents): 54.5 ± 3.4%
inhibition at 10 µM (GluN1/GluN2A NMDARs [1]; glutamate 10 μM, glycine 30 μM, read-out: percentage inhibition of GluN1/GluN2A NMDAR-mediated currents): 52.2 ± 3.7%
inhibition at 10 µM (GluN1/GluN2A NMDARs [1]; glutamate 30 μM, glycine 30 μM (glutamate-dependency series), read-out: percentage inhibition of GluN1/GluN2A NMDAR-mediated currents): 45.8 ± 2.8%
inhibition of GluN1/GluN2A NMDAR-mediated currents (GluN1/GluN2A NMDARs [1]; glutamate 30 μM, glycine 10 μM): 82.4 ± 1.1%
inhibition of GluN1/GluN2A NMDAR-mediated currents (GluN1/GluN2A NMDARs [1]; glutamate 30 μM, glycine 30 μM): 50.7 ± 1.1%
Hill slope (GluN1/GluN2A NMDARs [1]; glutamate 30 μM, D-serine 3 μM): 1.57 ± 0.078
IC50 (GluN1/GluN2A NMDARs [1]; glutamate 30 μM, D-serine 3 μM): 326 ± 18 nM
Hill slope (GluN1/GluN2A NMDARs [1]; [6]): 1.33 ± 0.21
IC50 (GluN1/GluN2A NMDARs [1]; [6]): 816 ± 231 nM
Hill slope (GluN1/GluN2A NMDARs [1]; [7]): 1.17 ± 0.07
IC50 (GluN1/GluN2A NMDARs [1]; [7]): 1920 ± 250 nM
Hill slope (GluN1/GluN2A NMDARs [1]; glutamate 30 μM, glycine 3 μM): 1.42 ± 0.061
IC50 (GluN1/GluN2A NMDARs [1]; glutamate 30 μM, glycine 3 μM): 446 ± 26 nM
Hill slope (GluN1/GluN2A NMDARs [1]; glutamate 30 μM, glycine 10 μM): 1.49 ± 0.21
IC50 (GluN1/GluN2A NMDARs [1]; glutamate 30 μM, glycine 10 μM): 746 ± 133 nM
Hill slope (GluN1/GluN2A NMDARs [1]; glutamate 30 μM, glycine 30 μM): 1.17 ± 0.11
IC50 (GluN1/GluN2A NMDARs [1]; glutamate 30 μM, glycine 30 μM): 3890 ± 1060 nM
predicted maximal inhibition (GluN1/GluN2A NMDARs [1]; saturating glycine (or D-serine), from fits with unconstrained minima): around 40%
inhibition at 10 µM (GluN1/GluN2B NMDARs; glycine 3 μM): 1.8 ± 0.6%
inhibition at 10 µM (GluN1/GluN2B NMDARs; glycine 10 μM): 3.1 ± 1%
inhibition at 10 µM (GluN1/GluN2B NMDARs; glycine 30 μM): 3.1 ± 0.8%
dose ratio (r) for shift in glycine potency (GluN1/GluN2A NMDARs [3]; 0.3 μM TCN 201): 5.19 ± 0.4
dose ratio (r) for shift in glycine potency (GluN1/GluN2A NMDARs [3]; 1 μM TCN 201): 16.7 ± 2.1
dose ratio (r) for shift in glycine potency (GluN1/GluN2A NMDARs [3]; 3 μM TCN 201): 41.1 ± 1.5
dose ratio (r) for shift in glycine potency (GluN1/GluN2A NMDARs [3]; 10 μM TCN 201): 49.0 ± 2.0
pA2 (GluN1/GluN2A NMDARs [3]; GluN1/GluN2A NMDARs, from Schild plot intercept): 7.15
Schild plot slope (free linear regression fit) (GluN1/GluN2A NMDARs [3]; agonist D-serine): 0.87
allosteric constant (α) (GluN1/GluN2A NMDARs [3]; agonist D-serine, modified equation): 0.0106
Kb (GluN1/GluN2A NMDARs [3]; agonist D-serine, modified equation, all data points, read-out: allosteric KB^# (allosteric antagonist dissociation constant)): 66 nM
Kb (GluN1/GluN2A NMDARs [3]; agonist D-serine, slope constrained to unity, first three data points, read-out: equilibrium constant (KB)): 81 nM
maximum shift in the dose ratio (= 1/α) (GluN1/GluN2A NMDARs [3]; agonist glycine): around 80 fold
Schild plot slope (free linear regression fit) (GluN1/GluN2A NMDARs [3]; agonist glycine): 0.98
TCN 201 concentration needed to achieve the maximum dose-ratio shift (GluN1/GluN2A NMDARs [3]; agonist glycine, above limit of solubility): approximately 275 μM
allosteric constant (α) (GluN1/GluN2A NMDARs [3]; agonist glycine, modified equation): 0.0123
Kb (GluN1/GluN2A NMDARs [3]; agonist glycine, modified equation, all data points, read-out: allosteric KB^# (allosteric antagonist dissociation constant)): 56 nM
Kb (GluN1/GluN2A NMDARs [3]; agonist glycine, slope constrained to unity, first three data points, read-out: equilibrium constant (KB)): 70 nM
potency relative to TCN 213 at GluN1/GluN2A NMDARs (GluN1/GluN2A NMDARs [3]; comparison of pA2 / equilibrium constants): around 30 times
maximum shift in the dose ratio (= 1/α) (GluN1/GluN2A NMDARs [3]; glycine or D-serine as GluN1-site agonist): 80–90 fold
maximum usable concentration (noticeable precipitate at higher concentrations) [5]: 10 µM
SMILES: O=C(NNC(=O)c1ccc(CNS(=O)(=O)c2ccc(F)c(Cl)c2)cc1)c1ccccc1 [TCN 201, 3-chloro-4-fluoro-N-[4-[[2-(phenylcarbonyl)hydrazino]carbonyl]benzyl]benzenesulphonamide]
block of NMDAR-mediated current (percentage of the original current magnitude) ([4]; DIV 9–10 neurones): 5 ± 2%
block of NMDAR-mediated current (percentage of the original current magnitude) ([4]; DIV 15–18 neurones): 16 ± 3%
block of NMDAR-mediated current (percentage of the original current magnitude) ([4]; GluN2A-transfected DIV 9–10 neurones): 47 ± 4%
